The values that follow come from US20250122266A1, “SMART SINGLE-DOMAIN INTRABODIES WITH PRECISION SWITCHES FOR BIOMEDICAL APPLICATIONS” (THE TEXAS A&M UNIVERSITY SYSTEM, priority 2020, published 2025).

The assay has as its system Mito-mCh. Nature of the assay: mitochondria (Mito) translocation assay of rapabody and caffebody. The following applies: HeLa cells, GFP-caffebody and Mito-mCh. The format is cell-based. Here is the method:
For ligand-controllable nanobodies rapabody and caffebody, similar imaging and data analysis procedures were used. Transfected HeLa cells were incubated with normal growth media or media supplemented with different concentrations of ligands or diluted beverages as indicated in the figures. Coffees and teas were purchased from Starbucks, while other drinks were purchased from a grocery store.
The instant example evaluates whether the installation of genetically-encoded chemical switches would likewise enable chemogenetic control of nanobodies. The LOV2 domain in the S3 loop of sunbody was substituted with two ligand-controllable precision switches, UniRapR and a dimeric concatemer of acVHH (2×acVHH; FIG. 23A). UniRapR, engineered from the FKBP-FRB based chemically-inducible dimerization system, has been used to enable rapamycin-induced allosteric control of a wide range of host proteins, including kinases and GTPases. Further, acVHH is known to induce self-dimerization upon addition of caffeine, and thus it was hypothesized to elicit conformational changes when inserted into a host protein as a dimeric concatemer. These intrabody compositions were named “rapabodies” and “caffebodies”, respectively, to reflect the compounds used for chemogenetic manipulation. […]

For `Cn1c(=O)c2[nH]cnc2n(C)c1=O` [theophylline], the “activation of caffebody by caffeine analog or beverages” value was “could similarly activate caffebody”.
